Experiments:
[1] = biological target: T1, ShGH76 (Salegentibacter sp. Hel_I_6, UniProt A0ACD6BAU6, D116A/D117A, form not given); test: X-ray crystallography of the complex, […] Å; type: binding; settings: inactive double mutant ShGH76^Ala; co-crystallised in 1.6 M tri-sodium citrate; active site
T1 construct: gene GH76A; synthetic gene in pET28a(+) (NheI/XhoI), N-terminal 6xHis tag, E. coli BL21(DE3); modelled residues Asp54-Glu391

[2] = biological target: T2, ShGH76 (Salegentibacter sp. Hel_I_6, UniProt A0ACD6BAU6); test: HPAEC-PAD product analysis; type: biochemical
T2 construct: gene GH76A; synthetic gene in pET28a(+) (NheI/XhoI), N-terminal 6xHis tag, E. coli BL21(DE3); modelled residues Asp54-Glu391

[3] = biological target: T3, ShGH76 (Salegentibacter sp. Hel_I_6, UniProt A0ACD6BAU6, D116N/D117N, form not given); test: X-ray crystallography of the complex, […] Å; type: binding; settings: inactive double mutant ShGH76^Asn; co-crystallised at pH 4.6 with 140 mM calcium chloride; active site
T3 construct: gene GH76A; synthetic gene in pET28a(+) (NheI/XhoI), N-terminal 6xHis tag, E. coli BL21(DE3); modelled residues Asp54-Glu391

With `OC[C@H]1O[C@H](OC[C@H]2O[C@H](OC[C@H]3O[C@H](OC[C@H]4OC(O)[C@@H](O)[C@@H](O)[C@@H]4O)[C@@H](O)[C@@H](O)[C@@H]3O)[C@@H](O)[C@@H](O)[C@@H]2O)[C@@H](O)[C@@H](O)[C@@H]1O` (stereo partly drawn) [Man4, α-1,6-mannotetrose] the “X-ray crystallography of the complex, 1.90 Å” value [1] was “crystal structures of ShGH76^WT (apo-form), ShGH76^Asn (with Man3) and ShGH76^Ala (with Man4)”.
In the case of `OC[C@H]1O[C@H](OC[C@H]2O[C@H](OC[C@H]3O[C@H](OC[C@H]4O[C@H](OC[C@H]5O[C@H](OC[C@H]6O[C@H](OC[C@H]7OC(O)[C@@H](O)[C@@H](O)[C@@H]7O)[C@@H](O)[C@@H](O)[C@@H]6O)[C@@H](O)[C@@H](O)[C@@H]5O)[C@@H](O)[C@@H](O)[C@@H]4O)[C@@H](O)[C@@H](O)[C@@H]3O)[C@@H](O)[C@@H](O)[C@@H]2O)[C@@H](O)[C@@H](O)[C@@H]1O` (stereo partly drawn) [Man7, mannoheptose], the HPAEC-PAD product analysis [2] is reported as “As is exemplarily shown for Man7 (Fig. 5D), ShGH76^WT hydrolyzed α-1,6-mannooligosaccharides almost completely”.
For `OC[C@H]1O[C@H](OC[C@H]2O[C@H](OC[C@H]3OC(O)[C@@H](O)[C@@H](O)[C@@H]3O)[C@@H](O)[C@@H](O)[C@@H]2O)[C@@H](O)[C@@H](O)[C@@H]1O` (stereo partly drawn) [Man3, α-1,6-mannotriose], the “X-ray crystallography of the complex, 1.47 Å” value [3] was “crystal structures of ShGH76^WT (apo-form), ShGH76^Asn (with Man3) and ShGH76^Ala (with Man4)”.

Reference: paper PMC9213526, “Glycoside hydrolase from the GH76 family indicates that marine Salegentibacter sp. Hel_I_6 consumes alpha-mannan from fungi” (The ISME Journal, 2022)
